{"source": "patent US12629370B2", "about": "“Treatment of prostate cancer” (Sumitomo Pharma Co., Ltd., priority 2016, dated 2026)", "key": {"serum LH": {"system": "serum LH", "assay": "Example 7: serum LH in healthy men", "type": "in vivo, human", "protocol": "(§1) FSH, DHT, and insulin-like growth factor 1 (IGF-1; Parts 3 and 4 only) were measured in a subset of samples. Serum testosterone was assayed using a conventional immunoassay for screening (LLOQ=0.4 nmol/L). A validated LC/MS/MS method, with an LLOQ of 0.173 nmol/L and a ULOQ of 10.425 nmol/L, was used for all subsequent baseline (i.e., the subject's serum hormone levels prior to treatment commencing) and postdose measurements."}, "[1]": {"system": "serum LH, FSH, DHT and SHBG", "assay": "Example 6: serum LH, FSH, DHT and SHBG", "type": "in vivo, human", "details": "for serum LH, FSH and DHT concentrations: all dose levels"}, "LH": {"system": "LH", "assay": "Example 9: LH", "type": "in vivo, human", "protocol": "Eligible male patients were aged ≥18 years with a histologically confirmed diagnosis of localized, intermediate-risk prostate cancer, for whom 6-month neoadjuvant and adjuvant androgen deprivation therapy (ADT) to external beam radiation therapy (EBRT) was indicated. The criteria for establishing intermediate-risk prostate cancer included the presence of one of the following, without any high-risk feature: T2b-T2c disease, Gleason score 7, or prostate-specific antigen (PSA) 10-20 ng/mL. […] Based on investigator discretion and clinical assessment of the patient's overall medical and disease status, participation was allowed for older patients with high-risk disease (e.g., based on Gleason score or tumor status) who were deemed likely to benefit from 6 months of neoadjuvant/adjuvant ADT.\nBoth treatment arms received treatment for 24 weeks. […] EBRT began no later than day 1, week 17.\nPatients were evaluated every 4 weeks during the treatment period (including day 1, week 25), at end of treatment (defined as week 29), during follow-up (week 33), and at end of study (EOS).\nSamples for testosterone, luteinizing hormone (LH), FSH, and PSA concentrations were taken at screening, on day 1 of the first week (additionally days 2 and 4 for testosterone and LH), and on day 1 of weeks 2, 3, 5, 9, 13, 17, 21, 25, 29, 33, and 37 thereafter."}, "[2]": {"assay": "Example 7: serum testosterone lowering in healthy men", "type": "in vivo", "details": "male, human, plasma, oral, maintenance doses of 80 mg or greater"}, "[3]": {"system": "patients with intermediate-risk prostate cancer", "assay": "Example 9: quality of life (EORTC QLQ-C30, QLQ-PR25, AMS)", "type": "in vivo, human", "protocol": "Eligible male patients were aged ≥18 years with a histologically confirmed diagnosis of localized, intermediate-risk prostate cancer, for whom 6-month neoadjuvant and adjuvant androgen deprivation therapy (ADT) to external beam radiation therapy (EBRT) was indicated. The criteria for establishing intermediate-risk prostate cancer included the presence of one of the following, without any high-risk feature: T2b-T2c disease, Gleason score 7, or prostate-specific antigen (PSA) 10-20 ng/mL. Additional inclusion criteria included: EBRT scheduled to begin ≥12 weeks after baseline visit; screening serum testosterone >150 ng/dL (5.2 nmol/L); screening PSA concentration >2 ng/ml; body mass index ≥18.0 at screening or baseline (i.e., the subject's BMI prior to treatment commencing); Eastern Cooperative Oncology Group performance status of 0 or 1 at screening. Based on investigator discretion and clinical assessment of the patient's overall medical and disease status, participation was allowed for older patients with high-risk disease (e.g., based on Gleason score or tumor status) who were deemed likely to benefit from 6 months of neoadjuvant/adjuvant ADT. Most patients had intermediate-risk disease. However, a few patients, based on Gleason score or tumor, node, and metastasis staging system, were technically of higher than intermediate risk.\nBoth treatment arms received treatment for 24 weeks. Patients remained on treatment for at least 12 weeks before the start of external beam radiation treatment (EBRT), which was initiated for most patients between Week 13, Day 1 and Week 15, Day 1. EBRT began no later than day 1, week 17.\nQuality of Life (QoL) was assessed via the core 30-item European Organisation for Research and Treatment of Cancer quality of life questionnaire (EORTC QLQ-C30), the 25-item prostate cancer module EORTC questionnaire (EORTC QLQ-PR25), and the aging male survey (AMS). QoL assessments were completed at screening, on day 1 of weeks 1, 5, 13, and 25, and at weeks 29, 33, and 37."}, "serum PSA": {"system": "serum PSA", "assay": "Example 6: serum PSA (CLEIA)", "type": "in vivo, human", "protocol": "This study consisted of two parts: Part A, a dose-rising phase, and Part B, an expansion phase. Whether or not the study would proceed to the next cohort or to Part B was determined through assessment of tolerability at the present dose, based on the incidence of adverse effects during the evaluation period.\nSubjects in Cohort 1 received a load dose of 320 mg and a maintenance dose of 80 mg; subjects in Cohort 2 received a load dose of 320 mg and a maintenance dose of 120 mg; subjects in Cohort 3 received a load dose of 320 mg and a maintenance dose of 160 mg; and subjects in Cohort 4 received a load dose of 360 mg and a maintenance dose of 120 mg.\nIn addition to the safety assessments, efficacy assessments were also performed according to the study schedule, and the Compound 1 formulation was administered until each subject met the discontinuation criteria."}, "FIG. 22": {"assay": "FIG. 22", "description": "Table printed on a drawing sheet, FIG. 22\nFirst reader's note: The rows 'Plasma' and 'Urine' are section headings giving the matrix; the raised marks a and c are printed, but their footnotes are not on the sheet, and the meaning of the values in brackets is not stated.)"}, "serum FSH": {"system": "serum FSH", "assay": "Example 7: serum FSH in healthy men", "type": "in vivo, human", "protocol": "as §1"}, "rats": {"system": "rats", "details": "rat, in vivo"}, "[4]": {"details": "from baseline (day 1) to week 25"}, "[5]": {"details": "Part A Day 28, Cohort 1 (320 mg load, 80 mg QD)"}, "[6]": {"details": "Part A Day 28, Cohort 2 (320 mg load, 120 mg QD)"}, "[7]": {"details": "Part A Day 28, Cohort 3 (320 mg load, 160 mg QD)"}, "[8]": {"details": "Part B Week 13 Day 1 (LOCF), 120 mg group"}}, "note": "Values joined by “and” are separate entries in the source; they are usually repeats but may differ in a detail not shown here. Equal entries are not always repeated."}
{"compound": "CONC(=O)Nc1ccc(-c2sc3c(c2CN(C)C)c(=O)n(-c2ccc(OC)nn2)c(=O)n3Cc2c(F)cccc2F)cc1", "note": "[Compound 1, N-(4-(1-(2,6-difluorobenzyl)-5-((dimethylamino)methyl)-3-(6-methoxy-3-pyridazinyl)-2,4-dioxo-1,2,3,4-tetrahydrothieno[2,3-d]pyrimidin-6-yl)phenyl)-N′-methoxyurea]", "values": [{"measurement": "CLr (L/h)", "setting": "FIG. 20", "result": "7.57 (13.4) L/h and 8.11 (12.7) L/h and 9.24 (10.0) L/h and 8.64 (10.8) L/h"}, {"measurement": "Fe (%)", "setting": "FIG. 20", "result": "2.95 (41.5) % and 2.05 (33.4) % and 1.46 (38.7) %"}, {"measurement": "t1/2(h)", "setting": "FIG. 20", "result": "20.8 (5.2) h and 21.3 (20.0) h and 21.7 (8.9) h"}, {"measurement": "mean serum LH at end of 16 days", "setting": "serum LH; Part 2, 80 mg, baseline 4.57 IU/L", "result": 0.33, "unit": "IU/L"}, {"measurement": "mean serum LH at end of 16 days", "setting": "serum LH; Part 2, 180 mg, baseline 3.90 IU/L", "result": 0.23, "unit": "IU/L"}, {"measurement": "serum SHBG, baseline versus postdose", "setting": "[1]; Part A", "result": "no particular changes"}, {"measurement": "serum LH, FSH and DHT concentrations", "setting": "[1]; Part A", "result": "rapidly suppressed"}, {"measurement": "serum SHBG, baseline versus postdose", "setting": "[1]; Part B", "result": "no particular changes"}, {"measurement": "serum LH, FSH and DHT concentrations", "setting": "[1]; Part B", "result": "rapidly suppressed"}, {"measurement": "Median LH", "setting": "LH; Baseline", "result": 4.7, "unit": "mlU/mL"}, {"measurement": "Median LH", "setting": "LH; Week 24", "result": 0.1, "unit": "mlU/mL"}, {"measurement": "mean LH level", "setting": "LH; Week 25, Day 1", "result": 0.325, "unit": "IU/L"}, {"measurement": "Median LH", "setting": "LH; Week 28/EOT visit", "result": 3.1, "unit": "mlU/mL"}, {"measurement": "Median LH", "setting": "LH; Week 32/follow-up", "result": 8.3, "unit": "mlU/mL"}, {"measurement": "Median LH", "setting": "LH; Week 36/EOS", "result": 10.7, "unit": "mlU/mL"}, {"measurement": "concentration at 28 days", "setting": "[2]", "result": "> 4", "unit": "ng/mL"}, {"measurement": "Hormonal treatment-related symptoms, Mean (SD) change", "setting": "[3]; [4]", "result": "13.4 (12.1)"}, {"measurement": "Sexual activity, Mean (SD) change", "setting": "[3]; [4]", "result": "−19.7 (29.4)"}, {"measurement": "Global health/QoL, Mean (SD) change", "setting": "[3]; from baseline to week 36 (EOS)", "result": "−7.7 (17.8)"}, {"measurement": "Hormonal treatment-related symptoms, Mean (SD) change", "setting": "[3]; from baseline to week 36 (EOS)", "result": "8.5 (11.3)"}, {"measurement": "Sexual activity, Mean (SD) change", "setting": "[3]; from baseline to week 36 (EOS)", "result": "−7.3 (30.0)"}, {"measurement": "Global health/QoL, Mean (SD) change", "setting": "[3]; from week 25 to week 36", "result": "2.3 (16.6)"}, {"measurement": "Hormonal treatment-related symptoms, Mean (SD) change", "setting": "[3]; from week 25 to week 36", "result": "−5.0 (10.3)"}, {"measurement": "Sexual activity, Mean (SD) change", "setting": "[3]; from week 25 to week 36", "result": "12.1 (21.8)"}, {"measurement": "QOL (AMS and sexual activity scores) from EOT through EOS", "setting": "[3]; in vivo", "result": "appeared to improve more in the Compound 1 than the degarelix group"}, {"measurement": "mean percentage change from baseline in serum PSA", "setting": "serum PSA; [5]", "result": "−76.37", "unit": "%"}, {"measurement": "median percentage change from baseline in serum PSA", "setting": "serum PSA; [5]", "result": "−77.50", "unit": "%"}, {"measurement": "mean percentage change from baseline in serum PSA", "setting": "serum PSA; [6]", "result": "−60.10", "unit": "%"}, {"measurement": "median percentage change from baseline in serum PSA", "setting": "serum PSA; [6]", "result": "−72.30", "unit": "%"}, {"measurement": "mean percentage change from baseline in serum PSA", "setting": "serum PSA; [7]", "result": "−32.10", "unit": "%"}, {"measurement": "median percentage change from baseline in serum PSA", "setting": "serum PSA; [7]", "result": "−50.50", "unit": "%"}, {"measurement": "median percentage change from baseline in serum PSA", "setting": "serum PSA; Part B Week 13 Day 1 (LOCF), 80 mg group", "result": "−97.20", "unit": "%"}, {"measurement": "mean percentage change from baseline in serum PSA", "setting": "serum PSA; [8]", "result": "−93.11", "unit": "%"}, {"measurement": "median percentage change from baseline in serum PSA", "setting": "serum PSA; [8]", "result": "−95.80", "unit": "%"}, {"measurement": "AUC0-24 (ng•h/mL)", "setting": "FIG. 22", "result": "1358 (53.1) ng•h/mL and 1878 (51.9) ng•h/mL"}, {"measurement": "CLr (L/h)", "setting": "FIG. 22", "result": "7.29 (13.2) L/h and 7.25 (36.2) L/h and 7.36 (25.9) L/h"}, {"measurement": "Fe (%)", "setting": "FIG. 22", "result": "0.934 (39.4) % and 2.20 (74.7) % and 2.61 (62.3) % and 3.43 (29.4) %"}, {"measurement": "time postdose at which mean serum FSH began to decrease", "setting": "serum FSH; Part 1 single doses 80-360 mg", "result": 2, "unit": "h"}, {"measurement": "time postdose of lowest mean serum FSH", "setting": "serum FSH; Part 1 single doses 80-360 mg", "result": 48, "unit": "h"}, {"measurement": "mean serum FSH at end of 16 days", "setting": "serum FSH; Part 2, 80 mg, baseline 6.07 IU/L", "result": 0.67, "unit": "IU/L"}, {"measurement": "mean serum FSH at end of 16 days", "setting": "serum FSH; Part 2, 180 mg, baseline 3.88 IU/L", "result": 0.33, "unit": "IU/L"}, {"measurement": "adverse effect observed in non-clinical toxicity studies", "setting": "rats", "result": "phospholipidosis"}]}
